The values below come from ChEMBL document CHEMBL3244035, “Synthesis and hypoglycemic activity of 4-substituted 3-mercaptopicolinic acids” (J Med Chem, 1977).

Activity calls are given as the source filed them. The rule behind the calls is not given here.

The subject of the assay is Rattus norvegicus. The assay can be described thus: Hypoglycemic activity in 48 hrs fasted rat assessed as reduction in blood glucose at 150 mg/kg, po measured 1 to 4 hrs post challenge. The class given is functional, organism-based. Also on record: dose 150 mg/kg.

Take `COc1ccnc(C(=O)O)c1S`: the result was inactive.

On to `CCc1ccnc(C(=O)O)c1S`, for which the result was inactive. The entry for `O=C(O)c1nccc(S)c1S` is “inactive”; for `O=C(O)c1nccc(Cl)c1S` it is “inactive”; for `CSc1ccnc(C(=O)O)c1S` it is “inactive”. The entry for `Nc1ccnc(C(=O)O)c1S` is “inactive”; for `O=C(O)c1nccc(Oc2ccccc2)c1S` it is “inactive”.
